8 compounds from patent US4791130A, “Mitomycin derivatives as antileukemia agents” (priority 1986, dated 1988) can be followed below.

In brackets after ≈: the same amount, converted by molar mass. Read-outs that look alike come from different tables or passages of the source.

A word on the IC50: it is the concentration needed to halve the response being measured. As a reminder, the LD50 is the dose expected to kill half of the subjects tested.

The subject of data set [1] is Sarcoma 180 solid tumour. Format: in vivo, ddy mouse. The settings on record: ddy mice, LD50 abdominal, ED50 single tail vein dose, tumour volume 7 days after implantation. The source says: (§1) In this table, C.I. denotes chemotherapeutic index, calculated as (LD50)/(ED50), wherein LD50 denotes the value of acute toxity, and ED50 denotes the dose of a sample which is capable of reducing the volume of Sarcoma 180 solid tumour to 50% of the corresponding volume of the solid tumour of untreated group.
(§2) The test compound was abdominally administered once to ddy mice, each group consisting of 5 animals.
(§3) 5×10^6 cells of Sarcoma 180 solid tumour were abdominally implanted into a ddy mouse. After 7 days, the cells were collected from the acsites fluid. The cells were washed once with physiological saline under sterile conditions and suspended in physiological saline to obtain a cell suspension containing 5×10^7 cells/ml, of which 0.1 ml was implanted into a ddy mouse (body weight 20±2 g) under the skin of the right armpit. The test compound was dissolved in physiological saline or the same solution containing Tween 80. 24 hours after implantation of the tumour cells, 0.1-0.2 ml of the solution containing the test compound was administered to the vein at the tail of each animal of the test group consisting of 5 animals. 7 days after the implantation, the major axis (a) and minor axis (b) of the tumour were measured to calculate the volume of the tumour as "a"×"b^2 "/2. The antitumour effect was indicated by T/C which is the ratio of the tumour volume in the test animals to the corresponding volume of the control (untreated) animals.
(§4) T/C ratios and the dose were respectively plotted on the ordinate using an arithmetic scale and on the abscissa using a logarithmic scale, the relationship between the dosage and the T/C ratio being converted to a straight line by the least squares method. From the straight tropic line thus-obtained, the dose corresponding to a T/C=0.5 viz. ED50 was determined.

The test system of data set [2] is Hela S3 cultured cells. In words: Effects upon Hela S3 cultured cells (cell count after 72 hours). Type of data set: cell-based. The settings on record: Homo sapiens. As for the experimental part: Table 3 indicates the effects of typical Compounds (I) against Hela S3 culture cells In this Table, IC50 denotes the concentration of the test compound capable of reducing the number of the cells to 50% of the number of untreated cells.
The experiment was carried out in the following manner:
Cultured cells of Hela S3 were added to a MEM medium containing 10% (V/V) of bovine fetal serum and […] of glutamine to obtain a cell suspension of 3×10^4 cells/ml. The cell suspension was poured into each well (1 ml/well) of a multiplate having 24 wells for culturing at 37° C. in an incubator containing carbon dioxide (5%) and air (95%). After 24 hours, samples were dissolved or suspended in PBS, ethanol or dimethylsulfoxide were added to the medium at different concentrations,followed by culturing at 37° C. for 72 hours in the same incubator.
An aspirator was used to collect the medium from each well. The surface of each medium was washed by added PBS (1 ml) gently, and then PBS was sucked out. PBS containing trypsin (0.05%) and EDTA (0.02%) was poured into each well. After pipetting, the number of the cells in each suspension was counted by the use of a micro-cell counter (commercial product of Toa Iyo Denshi K.K., Japan). By reference to a curve showing the concentration vs. the number of the cells, IC50 (concentration of the sample capable of reducing the number of the cells to 50% on the basis of the number of control untreated cells) was measured.

Data set [3] is described as follows: in vivo. The settings on record: mouse, ip, ddy mice, single abdominal administration, 14 days observation, Behrens-Korber's method.
Text: as §2

Data set [4] in a line: in vivo. The settings on record: mouse, ip.
Text: as §1, §3, §4
Sarcoma 180 solid tumour cells (5×10^6) were subcutaneously implanted into the skin under the right armpit of each mouse (body weight 20±2 g) of a group consisting of 5 male mice (ddy strain). 24 hours later, a test compound was intraperitoneally administered to each animal. 4 days later, blood (0.02 ml) was collected from the suborbital plexus vein of each tumour-carrying animal. The collected sample of blood was dispersed in 9.98 ml of Cell-kit Seven solution. One drop of saponin solution was added to the sample to dissolve erythrocytes and then a microcell counter was used to measure the number of leucocytes. On graph paper, the number of leucocytes was plotted on the ordinate using an arithmetic scale, and the dosage was plotted on the abscissa using a logarithmic scale to plot the relationship of the dosage to the number of peripheral leucocytes, from which the value of WBC4000, viz. a value capable of giving 4000 peripheral leucocytes (about half of the corresponding value in normal mice) per mm^3, was obtained.

`CO[C@@]12[C@H](COC(N)=O)C3=C(C(=O)C(C)C(=NOCC(C)C)C3=O)N1C[C@@H]1N[C@@H]12` (stereo partly drawn) [Example 2, [1aS-(1aα, 8β, 8aα, 8bα)]-8-{[(aminocarbonyl)oxy]methyl}-6-[(isobutyloxy)imino]-8a-methoxy-5-methyl1,1a,2,5,6,8,8a,8b-octahydro-azirino[2',3':3,4]pyrrolo[1,2-a]indole-4,7-dione]: the “C.I. (chemotherapeutic index, LD50/ED50)” value in data set [1] worked out at 3.6. This compound returned an IC50 in data set [2] (HeLa S3, 72 h) of 3 ng/mL (≈ 0.00738 µM). Moreover, in data set [3], the 50% lethal dose (LD50) at 336 h came out at 18.8 mg/kg. In data set [4], the selectivity ratio was determined as 1.9.

Take `CCCCON=C1C(=O)C2=C(C(=O)C1C)N1C[C@@H]3N[C@@H]3[C@]1(OC)[C@@H]2COC(N)=O` (stereo partly shown) [Example 4]: the “C.I. (chemotherapeutic index, LD50/ED50)” value in data set [1] turned out to be 2.7. In data set [2] (HeLa S3, 72 h), this compound returned an IC50 of 6 ng/mL (≈ 0.0148 µM). The compound further gave an LD50 at 336 h in data set [3] of 18.8 mg/kg. For the same compound, in data set [4], the selectivity ratio worked out at 0.9.

For `CC(C)CON=C1C(=O)C2=C(C(=O)C1C)N1C[C@H]3[C@H](N3C)[C@]1(O)[C@H]2COC(N)=O` (stereo partly shown) [Example 6], in data set [2] (HeLa S3, 72 h), half-maximal inhibition (IC50) required 30 ng/mL (≈ 0.0738 µM).

Regarding `CO[C@@]12[C@H](COC(N)=O)C3=C(C(=O)C(C)=C(N)C3=O)N1C[C@@H]1N[C@@H]12` [Mitomycin C, reference compound], the IC50 in data set [2] (Hela S3 cells, 72 hours at 37° C., concentration reducing cell number to 50% of untreated, read-out: IC50) was 4 ng/mL (≈ 0.012 µM).

On to `CCC(C)ON=C1C(=O)C2=C(C(=O)C1C)N1C[C@@H]3N[C@@H]3[C@]1(OC)[C@@H]2COC(N)=O` (stereo partly shown) [Example 3], for which, in data set [1], the “C.I. (chemotherapeutic index, LD50/ED50)” value is 3.1. The same compound came in with an IC50 in data set [2] (HeLa S3, 72 h) of 1 ng/mL (≈ 0.00246 µM). This compound displayed a median lethal dose (LD50) at 336 h in data set [3] of 18.8 mg/kg. The selectivity ratio in data set [4] was found to be 2.4.

On to `CO[C@@]12[C@H](CO)C3=C(C(=O)C(C)C(=NOCC(C)C)C3=O)N1C[C@@H]1N[C@@H]12` (stereo partly drawn) [Example 7, [1aS-(1aα, 8β, 8aα, 8bα)]-8-hydroxymethyl-6-[(isobutyloxy)imino] -8a-methoxy-5-methyl-1,1a, 2,5,6,8,8a,8b-octahydro-azirino [2',3':3,4]pyrrolo[1,2-a] indole-4,7-dione], for which the IC50 in data set [2] (HeLa S3, 72 h) amounted to 3 ng/mL (≈ 0.00826 µM).

Regarding `CO[C@@]12[C@H](COC(N)=O)C3=C(C(=O)C(C)C(=NOCC(C)C)C3=O)N1C[C@H]1[C@@H]2N1C` (stereo partly drawn) [Example 5, [1aS-(1aα, 8β, 8aα, 8bα)]-8-{[(aminocarbonyl)oxy]methyl}-1,5-dimethyl-6-[(isobutyloxy)imino]8a-methoxy-1,1a,2,5,6,8,8a,8b-octahydro-azirino [2',3': 3,4]pyrrolo[1,2-a]indole-4,7-dione], the “C.I. (chemotherapeutic index, LD50/ED50)” value in data set [1] came out at 3.4. Besides, the LD50 at 336 h in data set [3] is 60 mg/kg. In addition, in data set [4], the selectivity ratio worked out at 1.4.

For the compound `CON=C1C(=O)C2=C(C(=O)C1C)N1C[C@@H]3N[C@@H]3[C@]1(OC)[C@@H]2COC(N)=O` (stereo partly drawn) [Example 1, [1aS-(1aα,8β,8aα,8bα)]-8-{[(aminocarbonyl)oxy]methyl}-8a-methoxy-6-[(methoxy)imino]-5-methyl-1,1a,2,5,6,8,8a,8b-octahydro-azirino-[2',3':3,4]pyrrolo[1,2-a]indole-4,7-dione], the “C.I. (chemotherapeutic index, LD50/ED50)” value in data set [1] is 0.7. This compound also showed an IC50 in data set [2] (HeLa S3, 72 h) of 12 ng/mL (≈ 0.0329 µM). The compound also came in with an LD50 at 336 h in data set [3] of 37.5 mg/kg. Moreover, in data set [4], the selectivity ratio worked out at 0.5.
